Measurements reported in patent publication US6964959B2, “Use of a methylol-containing compound to treat tumors” (Carter Wallace, Inc., priority 1999, dated 2005).

Assays:
human cancer cell lines = experiment: Cytotoxic activity of taurultam in human cancer cell lines; format: cell-based
Protocol: The cytotoxic activity of taurultam was evaluated in vitro using the same human cancer cell lines as described above. […] The data also indicate that the cytotoxic effect is directly proportionate to the number of methylol molecules liberated per molecule of methylol-containing compound

[1] = test system: MDR-transfected glioblastoma cells; experiment: Cytotoxicity in MDR-transfected glioblastoma cells; conditions: transfected vs untransfected glioblastoma cells
Text: The neoplastic cell lines used in the survey were standard tumor cell lines, e.g., PA1 human ovarian cell line, SKOV3 human ovarian cell line, HT29 human colon tumor cell line, DU145 human prostate tumor cell line, U251 human glioblastoma cell line, U251-MDR human glioblastoma cell line transfected with DNA encoding MDR, T98G human glioblastoma cell line, SP-1 human leukemia cell line, and Daudi human leukemia cell line.
Glioblastoma cells were transfected with a gene encoding multiple drug resistance (MDR).

Row | Compound | induction of apoptotic death (human cancer cell lines; cancer cells vs normal control cells) | cytotoxic activity relative to the activity observed with taurolidine (human cancer cell lines; same human cancer cell lines as for taurolidine) | resistance of MDR-transfected cells [1]
1 | O=S1(=O)CCNCN1 [taurultam] | induced apoptotic death of cancer cells but not normal control cells | approximately 75% | –
2 | COc1cccc2c1C(=O)c1c(O)c3c(c(O)c1C2=O)C[C@@](O)(C(=O)CO)C[C@@H]3O[C@H]1C[C@H](N)[C@H](O)[C@H](C)O1 [adriamycin] | – | – | 100-1000 times
